According to the NIST ThermoML archive (doi:10.1021/acs.jced.7b00106):

Conditions: Liquid, Hot wire method

FC(F)(F)/C=C/Cl [(E)-1-chloro-3,3,3-trifluoroprop-1-ene]
Conditions	thermal conductivity [W/m/K]
244.27 K, 20428 kPa	0.1068
261.5 K, 276 kPa	0.09433
261.52 K, 5038 kPa	0.09629
261.54 K, 10280 kPa	0.09846
261.55 K, 22296 kPa	0.1036
261.56 K, 15956 kPa	0.1002
261.58 K, 270 kPa	0.09415
261.61 K, 5056 kPa	0.09622
261.63 K, 10283 kPa	0.09831
261.64 K, 22292 kPa	0.1023
261.65 K, 15950 kPa	0.1003
261.91 K, 36411 kPa	0.1079
261.91 K, 42842 kPa	0.1093
261.93 K, 282 kPa	0.09438
261.93 K, 5041 kPa	0.09641
261.94 K, 29216 kPa	0.1051
261.95 K, 22290 kPa	0.103
261.96 K, 10273 kPa	0.09851
261.96 K, 15950 kPa	0.1005
261.97 K, 65297 kPa	0.1155
262 K, 59186 kPa	0.115
262.01 K, 36414 kPa	0.1074
262.01 K, 42847 kPa	0.1089
262.02 K, 51140 kPa	0.1116
262.04 K, 270 kPa	0.094
262.05 K, 29220 kPa	0.105
262.06 K, 5047 kPa	0.09593
262.06 K, 10278 kPa	0.09816
262.06 K, 22290 kPa	0.1024
262.06 K, 65280 kPa	0.115
262.08 K, 15930 kPa	0.1003
262.1 K, 59178 kPa	0.1128
262.12 K, 51139 kPa	0.1114
262.33 K, 36413 kPa	0.1071
262.33 K, 42846 kPa	0.1091
262.37 K, 65275 kPa	0.1153
262.38 K, 29224 kPa	0.1054
262.4 K, 275 kPa	0.09425
262.4 K, 22288 kPa	0.1026
262.41 K, 59182 kPa	0.1141
262.42 K, 5040 kPa	0.09609
262.42 K, 10267 kPa	0.09829
262.43 K, 51128 kPa	0.1115
262.44 K, 15943 kPa	0.1005
262.46 K, 42848 kPa	0.1091
262.47 K, 36410 kPa	0.107
262.5 K, 65252 kPa	0.115
262.51 K, 29222 kPa	0.1049
262.53 K, 59166 kPa	0.1136
262.55 K, 22288 kPa	0.1025
262.56 K, 273 kPa	0.09391
262.56 K, 51133 kPa	0.1113
262.57 K, 5039 kPa	0.09583
262.57 K, 10288 kPa	0.09813
262.57 K, 15931 kPa	0.09995
262.8 K, 42854 kPa	0.1091
262.81 K, 36411 kPa	0.107
262.81 K, 65229 kPa	0.1152
262.86 K, 29224 kPa	0.105
262.86 K, 59156 kPa	0.1141
262.89 K, 51121 kPa	0.1116
262.9 K, 22284 kPa	0.1027
262.94 K, 280 kPa	0.094
262.94 K, 10264 kPa	0.09833
262.94 K, 15933 kPa	0.1003
262.95 K, 5058 kPa	0.09606
262.95 K, 42854 kPa	0.1089
262.96 K, 65209 kPa	0.115
262.98 K, 36413 kPa	0.1068
263.01 K, 59151 kPa	0.1135
263.03 K, 29224 kPa	0.1045
263.05 K, 51114 kPa	0.1112
263.06 K, 22282 kPa	0.1023
